In this assay the target is Human factor D (Homo sapiens (Human), UniProt P00746). The experiment in a line: Human Factor D Assay. To be noted: human factor D 80 nM, substrate Z-L-Lys-SBzl, DTNB. Type of assay: biochemical. The gist of the method: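 Serum-purified factor D (80 nM final) preincubated 5 min at room temperature with compound in 50 mM Tris, 1M NaCl, pH 7.5. Z-L-Lys-SBzl and DTNB added at 100 μM each; OD405 followed kinetically over 30 min. IC50 by non-linear regression of % inhibition.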
Chain of Human factor D (P00746 26-253): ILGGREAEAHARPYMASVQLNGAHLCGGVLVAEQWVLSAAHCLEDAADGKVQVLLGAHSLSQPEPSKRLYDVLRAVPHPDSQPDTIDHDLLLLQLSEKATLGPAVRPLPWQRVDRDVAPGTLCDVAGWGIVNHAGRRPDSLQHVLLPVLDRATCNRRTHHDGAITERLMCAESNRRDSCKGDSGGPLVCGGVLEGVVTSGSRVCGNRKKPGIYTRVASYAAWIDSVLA

The term IC50 denotes the midpoint of a concentration-inhibition curve. Low values mean inhibition by little substance, high ones a need for much substance.

On to `CC1Oc2cccc(NC(=O)[C@@H]3C[C@@H](F)CN3C(=O)Cn3nc(C(N)=O)c4cc(-c5ccnnc5)ccc43)c2NC1=O` (stereo partly drawn) [Compound 152, 1-(2-((2S,4R)-4-fluoro-2-(2-methyl-3-oxo-3,4-dihydro-2H-benzo[b][1,4]oxazin-5-ylcarbamoyl)pyrrolidin-1-yl)-2-oxoethyl)-5-(pyridazin-4-yl)-1H-indazole-3-carboxamide], for which the IC50 is above 10 µM.
Next, `CC(=O)c1cn(CC(=O)N2C[C@H](F)C[C@H]2C(=O)Nc2cccc3c2NC(=O)C(C)O3)c2ccc(-c3ccnnc3)cc12` (stereo partly drawn) [Compound 153, (2S,4R)-1-(2-(3-acetyl-5-(pyridazin-4-yl)-1H-indol-1-yl)acetyl)-4-fluoro-N-(2-methyl-3-oxo-3,4-dihydro-2H-benzo[b][1,4]oxazin-5-yl)pyrrolidine-2-carboxamide]: above 10 µM.
`NC(=O)c1nn(CC(=O)N2C[C@H](F)C[C@H]2C(=O)Nc2cc(O)ccn2)c2ccc(-c3ccnnc3)cc12` [Compound 154, 1-(2-((2S,4R)-4-fluoro-2-(4-hydroxypyridin-2-ylcarbamoyl)pyrrolidin-l-yl)-2-oxoethyl)-5-(pyridazin-4-yl)-1H-indazole-3-carboxamide] registered an IC50 above 10 µM.
Next, `Cn1ccc(N2CCC(NC(=O)[C@@H]3C[C@@H](F)CN3C(=O)Cn3nc(C(N)=O)c4cc(-c5ccnnc5)ccc43)C2=O)n1` (stereo partly drawn) [Compound 155, 1-(2-((2S,4R)-4-fluoro-2-(1-(1-methyl-1H-pyrazol-3-yl)-2-oxopyrrolidin-3-ylcarbamoyl)pyrrolidin-1-yl)-2-oxoethyl)-5-(pyridazin-4-yl)-1H-indazole-3-carboxamide]: above 10 µM.
Next, `CC(=O)c1cn(CC(=O)N2C[C@H](F)C[C@H]2C(=O)Nc2c[nH]nc2-c2ccc(Cl)cc2Cl)c2ccc(-c3ccnnc3)cc12` [Compound 156, (2S,4R)-1-(2-(3-acetyl-5-(pyridazin-4-yl)-1H-indol-1-yl)acetyl)-N-(3-(2,4-dichlorophenyl)-1H-pyrazol-4-yl)-4-fluoropyrrolidine-2-carboxamide]: above 10 µM; `NC(=O)c1nn(CC(=O)N2C[C@H](F)C[C@H]2C(=O)NCc2ccncc2)c2ccc(-c3ccnnc3)cc12` [Compound 157, 1-(2-((2S,4R)-4-fluoro-2-(pyridin-4-ylmethylcarbamoyl)pyrrolidin-1-yl)-2-oxoethyl)-5-(pyridazin-4-yl)-1H-indazole-3-carboxamide]: above 10 µM; `Cc1cc(NC(=O)[C@@H]2C[C@@H](F)CN2C(=O)Cn2nc(C(N)=O)c3cc(-c4ccnnc4)ccc32)n(-c2ccccc2F)n1` [Compound 158, 1-(2-((2S,4R)-4-fluoro-2-(1-(2-fluorophenyl)-3-methyl-1H-pyrazol-5-ylcarbamoyl)pyrrolidin-1-yl)-2-oxoethyl)-5-(pyridazin-4-yl)-1H-indazole-3-carboxamide]: above 10 µM.
Next, `CC(=O)c1cn(CC(=O)N2C[C@@H](F)C[C@@H]2C(=O)NC2CCCN(c3ccccc3Cl)C2=O)c2ccc(-c3ccnnc3)cc12` (stereo partly drawn) [Compound 161, (2R,4S)-1-(2-(3-acetyl-5-(pyridazin-4-yl)-1H-indol-1-yl)acetyl)-N-(1-(2-chlorophenyl)-2-oxopiperidin-3-yl)-4-fluoropyrrolidine-2-carboxamide]: below 1 µM.
The compound `CC(=O)c1nn(CC(=O)N2C[C@H](F)C[C@H]2C(=O)Nc2cccc(-c3ccccc3Cl)c2F)c2ccc(-c3cnc(C)nc3)cc12` [Compound 163, (2S,4R)-1-(2-(3-acetyl-5-(2-methylpyrimidin-5-yl)-1H-indazol-1-yl)acetyl)-N-(2′-chloro-2-fluorobiphenyl-3-yl)-4-fluoropyrrolidine-2-carboxamide] had an IC50 below 1 µM.
As for `CC(=O)c1cn(CC(=O)N2C[C@H](F)C[C@H]2C(=O)Nc2cccc(-c3ncccc3Cl)c2F)c2ccc(-c3cnc(C)nc3)cc12` [Compound 164, (2S,4R)-1-(2-(3-acetyl-5-(2-methylpyrimidin-5-yl)-1H-indol-1-yl)acetyl)-N-(3-(3-chloropyridin-2-yl)-2-fluorophenyl)-4-fluoropyrrolidine-2-carboxamide], the IC50 is below 1 µM.
`CC(=O)c1cn(CC(=O)N2C[C@H](F)C[C@H]2C(=O)Nc2noc(-c3ccccc3Cl)n2)c2ccc(-c3ccnnc3)cc12` [Compound 182, (2S,4R)-1-(2-(3-acetyl-5-(pyridazin-4-yl)-1H-indol-1-yl)acetyl)-N-(5-(2-chlorophenyl)-1,2,4-oxadiazol-3-yl)-4-fluoropyrrolidine-2-carboxamide] gave an IC50 below 1 µM.
Next, `CC(=O)c1cn(CC(=O)N2C[C@H](F)C[C@H]2C(=O)Nc2cccc(-c3ccccc3Cl)c2F)c2ccc(-c3cnc(O)nc3)cc12` [Compound 186, (2S,4R)-1-(2-(3-acetyl-5-(2-hydroxypyrimidin-5-yl)-1H-indol-1-yl)acetyl)-N-(2′-chloro-2-fluorobiphenyl-3-yl)-4-fluoropyrrolidine-2-carboxamide]: below 1 µM; `COCCNc1ncc(-c2ccc3c(c2)c(C(C)=O)cn3CC(=O)N2C[C@H](F)C[C@H]2C(=O)Nc2cccc(-c3ccccc3Cl)c2F)cn1` [Compound 187, (2S,4R)-1-(2-(3-acetyl-5-(2-(2-methoxyethylamino)pyrimidin-5-yl)-1H-indol-1-yl)acetyl)-N-(2′-chloro-2-fluorobiphenyl-3-yl)-4-fluoropyrrolidine-2-carboxamide]: below 1 µM.
Next, `CNc1ncc(-c2ccc3c(c2)c(C(C)=O)cn3CC(=O)N2C[C@H](F)C[C@H]2C(=O)Nc2cccc(-c3ccccc3Cl)c2F)cn1` [Compound 188, (2S,4R)-1-(2-(3-acetyl-5-(2-(methylamino)pyrimidin-5-yl)-1H-indol-1-yl)acetyl)-N-(2′-chloro-2-fluorobiphenyl-3-yl)-4-fluoropyrrolidine-2-carboxamide]: below 1 µM.

Values taken from patent US9796741B2 (Achillion Pharmaceuticals, Inc., priority 2014, dated 2017).
